Assay results as given in US12410155B2, “Salt form and crystal form of tetrahydrocyclohepta indazole compound” (Zhejiang Yangli Pharmaceutical Technology Co., Ltd., priority 2021, dated 2025).
Like-named read-outs stand apart in the source and are kept apart here.

System: human breast cancer MCF-7 cell subcutaneous xenograft tumor
Format: in vivo
Details: PO, QD; for T/C (%) / TGI (%) / Tumor volume (mm^3) (Day 21): Day 21; for Tumor volume (mm^3) (Day 21): listed as compound (I)
Method: (1) In Vivo Pharmacodynamic Study of Breast Cancer MCF-7 Cell Subcutaneous Xenograft Tumor BALB/c Nude Mouse Model
Objective: This study aimed to evaluate the in vivo efficacy of the crystal form C of the compound of formula (I) using a human breast cancer MCF-7 cell subcutaneous xenograft tumor model in nude mice.
Routine digestion with trypsin-EDTA (Gibco) was performed twice a week for passaging.
Cell inoculation: Estrogen pellets (0.36 mg/pellet; IRA) were subcutaneously inoculated into the left dorsum of each mouse. Three days later, 0.2 mL (1×10^7 cells) of MCF-7 cells (mixed with Matrigel; CORNING, volume ratio 1:1) were subcutaneously inoculated into the right dorsum of each mouse. When the average tumor volume reached 188 mm^3, the mice were grouped and the administration of compounds began.
An appropriate amount of the compound of formula (I) was weighed and prepared into 0.1, 0.3, 1, and 3 mg/mL solutions. […] Fulvestrant was used as the commercially available injection Faslodex.
The antitumor efficacy of the compounds was evaluated using Tumor Growth Inhibition (TGI, %) and relative tumor proliferation rate (T/C, %).
The Q value of combined medication index was calculated using the Jin formula. The criteria for judgment were as follows: a Q value of 0.85 to 1.15 indicated […] (+); a Q value>1.15 to 2.0 indicated enhancement (++); a Q value<0.85 to 0.55 indicated antagonism (−); and a Q value<0.55 indicated significant antagonism (−−). The formula was Q=Ea+b/(Ea+Eb−Ea×Eb), where Ea+b was the tumor inhibition rate of the combined medication group, and Ea and Eb were the tumor inhibition rates of the single medication groups, respectively.
Inter-group comparisons were analyzed using one-way ANOVA. […] A p value<0.05 was considered to indicate a significant difference.

FCCCN1CC[C@H](Nc2cnc(C3=C(CC(F)(F)F)CCCc4c3ccc3[nH]nc(F)c43)cn2)C1 [Compound of formula (I)]
T/C (%) (1 mg/kg): 27.2% | TGI (%) (1 mg/kg): 85.3% | Tumor volume (mm^3) (Day 21) (1 mg/kg): 340 mm^3 | T/C (%) (3 mg/kg): 14.8% | TGI (%) (3 mg/kg): 100.9% | Tumor volume (mm^3) (Day 21) (3 mg/kg): 179 mm^3 | ORR % (10 mg/kg): 25% | T/C (%) (10 mg/kg): 11.3% | TGI (%) (10 mg/kg): 104.6% | Tumor volume (mm^3) (Day 21) (10 mg/kg): 140 mm^3 | ORR % (30 mg/kg): 25% | T/C (%) (30 mg/kg): 9.7% | TGI (%) (30 mg/kg): 106.5% | Tumor volume (mm^3) (Day 21) (30 mg/kg): 121 mm^3
